Reference: PubChem BioAssay AID248 (DTP/NCI, 2004)
Several values for one entry are separate records, joined by “and”; a condition that tells them apart may be missing. Equal values may be shown once. Inconclusive results and toxic doses are left out. No stated cut-off is given here; in the data, active means T/C of 150% or more; inactive means T/C below 125%.

Tested on: L1210 leukemia ip in BDF1 mice, survival T/C
Assay: NCI In Vivo Anticancer Drug Screen. Data for tumor model L1210 Leukemia (intraperitoneal) in B6D2F1 (BDF1) mice
Conditions: endpoint: mean survival time, higher = longer survival
Procedure, shortened: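 Survival endpoint. Drug-treated group vs vehicle group, expressed as T divided by C. Tumor passaged by transplantation.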

[1] = dose: 100.0 mg/kg/injection, schedule: Q01DX009 (ip), vehicle: Klucel (hydroxypropylcellulose) (HPC)
[2] = dose: 25.0 mg/kg/injection, schedule: Q01DX009 (ip), vehicle: Klucel (hydroxypropylcellulose) (HPC)
[3] = dose: 100.0 mg/kg/injection, schedule: Q04DX003 (ip), vehicle: saline with Tween-80
[4] = dose: 200.0 mg/kg/injection, schedule: Q04DX003 (ip), vehicle: saline with Tween-80
[5] = dose: 400.0 mg/kg/injection, schedule: Q04DX003 (ip), vehicle: saline with Tween-80
[6] = dose: 200.0 mg/kg/injection, schedule: Q01DX009 (ip), vehicle: Klucel (hydroxypropylcellulose) (HPC)
[7] = dose: 100.0 mg/kg/injection, schedule: Q01DX001 (ip), vehicle: saline
[8] = dose: 50.0 mg/kg/injection, schedule: Q01DX001 (ip), vehicle: saline
[9] = dose: 200.0 mg/kg/injection, schedule: Q01DX001 (ip), vehicle: saline
[10] = dose: 400.0 mg/kg/injection, schedule: Q01DX001 (ip), vehicle: saline
[11] = dose: 100.0 mg/kg/injection, schedule: Q01DX001 (ip), vehicle: carboxymethylcellulose (CMC)
[12] = dose: 100.0 mg/kg/injection, schedule: Q01DX009 (ip), vehicle: saline
[13] = dose: 100.0 mg/kg/injection, schedule: Q04DX003 (ip), vehicle: saline
[14] = dose: 200.0 mg/kg/injection, schedule: Q01DX001 (ip), vehicle: carboxymethylcellulose (CMC)
[15] = dose: 200.0 mg/kg/injection, schedule: Q01DX009 (ip), vehicle: saline
[16] = dose: 200.0 mg/kg/injection, schedule: Q04DX003 (ip), vehicle: saline
[17] = dose: 400.0 mg/kg/injection, schedule: Q01DX001 (ip), vehicle: carboxymethylcellulose (CMC)
[18] = dose: 400.0 mg/kg/injection, schedule: Q01DX009 (ip), vehicle: saline
[19] = dose: 400.0 mg/kg/injection, schedule: Q04DX003 (ip), vehicle: saline

Measured: T/C

N#CCCCCCCCCCC#N
inactive: dose: 10.0 mg/kg/injection, schedule: Q04DX003 (ip), vehicle: Klucel (hydroxypropylcellulose) (HPC) 93 % of control | dose: 20.0 mg/kg/injection, schedule: Q04DX003 (ip), vehicle: Klucel (hydroxypropylcellulose) (HPC) 100 % of control | dose: 40.0 mg/kg/injection, schedule: Q04DX003 (ip), vehicle: Klucel (hydroxypropylcellulose) (HPC) 109 % of control | [1] 96 % of control

O=C(CI)Nc1ccc(Br)cc1
inactive: dose: 6.25 mg/kg/injection, schedule: Q01DX009 (ip), vehicle: Klucel (hydroxypropylcellulose) (HPC) 86 % of control | dose: 12.5 mg/kg/injection, schedule: Q01DX009 (ip), vehicle: Klucel (hydroxypropylcellulose) (HPC) 91 % of control | [2] 86 % of control | dose: 35.0 mg/kg/injection, schedule: Q01DX009 (ip), vehicle: Klucel (hydroxypropylcellulose) (HPC) 98 % of control

CC(=O)Nc1ccc(OC(C)=O)cc1
inactive: [3] 106 % of control | [4] 106 % of control | [5] 116 % of control

O=C(O)COc1ccccc1OCC(=O)O
inactive: [1] 98 % of control | dose: 100.0 mg/kg/injection, schedule: Q04DX003 (ip), vehicle: Klucel (hydroxypropylcellulose) (HPC) 94 % of control | [6] 100 % of control | dose: 200.0 mg/kg/injection, schedule: Q04DX003 (ip), vehicle: Klucel (hydroxypropylcellulose) (HPC) 100 % of control | dose: 400.0 mg/kg/injection, schedule: Q04DX003 (ip), vehicle: Klucel (hydroxypropylcellulose) (HPC) 98 % of control

CN(C)[C@@H]1C(=O)C(C(N)=O)=C(O)[C@@]2(O)C(=O)C3=C(O)c4c(O)cccc4C[C@H]3C[C@@H]12
inactive: dose: 12.5 mg/kg/injection, schedule: Q01DX001 (ip), vehicle: other 94 % of control | dose: 12.5 mg/kg/injection, schedule: Q04DX003 (ip), vehicle: Klucel (hydroxypropylcellulose) (HPC) 98 % of control | dose: 18.75 mg/kg/injection, schedule: Q01DX009 (ip), vehicle: other 111 % of control | dose: 25.0 mg/kg/injection, schedule: Q01DX001 (ip), vehicle: other 96 % of control | dose: 25.0 mg/kg/injection, schedule: Q04DX003 (ip), vehicle: Klucel (hydroxypropylcellulose) (HPC) 104 % of control | dose: 37.5 mg/kg/injection, schedule: Q01DX009 (ip), vehicle: other 117 % of control | dose: 50.0 mg/kg/injection, schedule: Q01DX001 (ip), vehicle: other 100 % of control | dose: 50.0 mg/kg/injection, schedule: Q04DX003 (ip), vehicle: Klucel (hydroxypropylcellulose) (HPC) 107 % of control | dose: 75.0 mg/kg/injection, schedule: Q04DX003 (ip), vehicle: other 107 % of control | [7] 112 % of control

COc1ccc(OC)c(C2(O)C=C(C)C(=O)C=C2C)c1 (configuration not stated)
inactive: dose: 150.0 mg/kg/injection, schedule: Q01DX001 (ip), vehicle: Klucel (hydroxypropylcellulose) (HPC) 91 % of control | dose: 300.0 mg/kg/injection, schedule: Q01DX001 (ip), vehicle: Klucel (hydroxypropylcellulose) (HPC) 91 % of control

COc1cc2c(cc1OC)C(=O)C(c1[nH]c3cc(OC)c(OC)cc3c1O)=N2
inactive: [8] 98 % of control | [7] 98 % of control | [9] 96 % of control | [10] 96 % of control

O=C1NC(=O)C(c2ccccc2)(c2ccc(Cl)cc2Cl)N1 (configuration not stated)
inactive: [11] 100 % of control | [7] 121 % of control | [12] 90 % of control | [13] 86 % of control | [14] 110 % of control | [9] 97 % of control | [15] 87 % of control | [16] 102 % of control | [17] 105 % of control | [10] 95 % of control | [18] 89 % of control | [19] 93 % of control

COc1cccc(CN)c1
inactive: [3] 99 % of control | [4] 100 % of control | [5] 94 % of control

Cc1ccc(S(=O)(=O)c2ccc(F)cc2)cc1
inactive: [3] 104 % of control | [4] 95 % of control | [5] 97 % of control

N#Cc1cc2ccccc2nc1N
inactive: [11] 98 % of control | [14] 93 % of control | [17] 98 % of control

COc1ccc2cc(C(C)=O)ccc2c1
inactive: [8] 117 % of control | [7] 105 % of control | [9] 100 % of control | [10] 110 % of control

O=C(O)CSC(=S)N1CCOCC1
inactive: dose: 100.0 mg/kg/injection, schedule: Q01DX001 (ip), vehicle: saline with Tween-80 91 % of control | dose: 200.0 mg/kg/injection, schedule: Q01DX001 (ip), vehicle: saline with Tween-80 88 % of control | dose: 400.0 mg/kg/injection, schedule: Q01DX001 (ip), vehicle: saline with Tween-80 94 % of control

COc1ccc([N+](=O)[O-])cc1CNCCCl
inactive: dose: 100.0 mg/kg/injection, schedule: Q01DX001 (ip), vehicle: Klucel (hydroxypropylcellulose) (HPC) 100 % of control | dose: 400.0 mg/kg/injection, schedule: Q01DX001 (ip), vehicle: Klucel (hydroxypropylcellulose) (HPC) 94 % of control

O=S(O)OS(=O)O
inactive: [12] 93 % of control | [13] 100 % of control | [15] 90 % of control | [16] 104 % of control | [18] 86 % of control | [19] 102 % of control

N=C(N)N=Nc1c(O)[nH]c(=O)[nH]c1=O
inactive: dose: 15.0 mg/kg/injection, schedule: Q01DX Z (ip), vehicle: carboxymethylcellulose (CMC) 98 % of control | dose: 30.0 mg/kg/injection, schedule: Q01DX Z (ip), vehicle: carboxymethylcellulose (CMC) 98 % of control | dose: 60.0 mg/kg/injection, schedule: Q01DX Z (ip), vehicle: carboxymethylcellulose (CMC) 93 % of control | dose: 60.0 mg/kg/injection, schedule: Q01DX Z (oral), vehicle: carboxymethylcellulose (CMC) 110 % of control | dose: 120.0 mg/kg/injection, schedule: Q01DX Z (ip), vehicle: carboxymethylcellulose (CMC) 97 % of control | dose: 120.0 mg/kg/injection, schedule: Q01DX Z (oral), vehicle: carboxymethylcellulose (CMC) 108 % of control | dose: 240.0 mg/kg/injection, schedule: Q01DX Z (oral), vehicle: carboxymethylcellulose (CMC) 104 % of control | dose: 480.0 mg/kg/injection, schedule: Q01DX Z (oral), vehicle: carboxymethylcellulose (CMC) 108 % of control

CC(=O)N(C)c1ccc(NC(=O)/C=C/c2ccccc2)cc1
inactive: [1] 95 % of control | [6] 101 % of control | dose: 400.0 mg/kg/injection, schedule: Q01DX009 (ip), vehicle: Klucel (hydroxypropylcellulose) (HPC) 105 % of control

COC(C)CSP(SCC(C)OC)SCC(C)OC (configuration not stated)
inactive: [2] 96 % of control | dose: 50.0 mg/kg/injection, schedule: Q01DX009 (ip), vehicle: Klucel (hydroxypropylcellulose) (HPC) 99 % of control | [1] 99 % of control

CCOC(=O)C(CO)(CC(CO)(C(C)=O)C(=O)OCC)C(C)=O (configuration not stated)
inactive: dose: 222.0 mg/kg/injection, schedule: Q01DX Z (ip), vehicle: methylcellulose (MC) 98 % of control | dose: 333.0 mg/kg/injection, schedule: Q01DX Z (ip), vehicle: methylcellulose (MC) 110 % of control | dose: 500.0 mg/kg/injection, schedule: Q01DX Z (ip), vehicle: methylcellulose (MC) 108 % of control

CC1CCCC(C)(CO)O1 (configuration not stated)
inactive: [12] 93 % of control | [13] 97 % of control | [15] 101 % of control | [16] 97 % of control | [18] 109 % of control | [19] 97 % of control

Cc1cc(C(C)(CC(C)C)c2ccc(O)c(C)c2)ccc1O
inactive: dose: 25.0 mg/kg/injection, schedule: Q01DX009 (ip), vehicle: gum acacia 96 % of control | dose: 50.0 mg/kg/injection, schedule: Q01DX009 (ip), vehicle: gum acacia 98 % of control | dose: 100.0 mg/kg/injection, schedule: Q01DX009 (ip), vehicle: gum acacia 93 % of control and 89 % of control | dose: 100.0 mg/kg/injection, schedule: Q04DX003 (ip), vehicle: gum acacia 97 % of control | dose: 200.0 mg/kg/injection, schedule: Q04DX003 (ip), vehicle: gum acacia 93 % of control | dose: 400.0 mg/kg/injection, schedule: Q04DX003 (ip), vehicle: gum acacia 90 % of control
